Measurements: publication PMC10178127, “Immunomodulatory Effects of the Pea Defensin Psd1 in the Caco-2/Immune Cells Co-Culture upon Candida albicans Infection” (International Journal of Molecular Sciences, 2023)

Tested on: CD14+ blood monocytes
Assay: Multiplex xMAP cytokine production, direct stimulation of monocytes
Format: cell-based, human
Settings: 24 h
Description: Primary peripheral blood mononuclear cells (PBMCs) collected from healthy donors were purchased from American Type Culture Collection (ATCC PCS-800-011). Primary CD14^+ blood monocytes were isolated from PBMCs by adherence according to standard technique. Monocyte-derived mature dendritic cells (moDCs) were obtained from CD14^+ blood monocytes according to the previously reported protocol. Briefly, blood monocytes were incubated in a complete RPMI-1640 medium (Capricorn Scientific, Ebsdorfergrund, Germany), containing 10% fetal bovine serum (FBS, Capricorn Scientific, Ebsdorfergrund, Germany), 1× antibiotic-antimycotic solution (Invitrogen, Waltham, MA, USA), 800 U/mL rhGM-CSF (Sci-Store, Moscow, Russia) and 500 U/mL rhIL-4 (Sci-Store) for 3 days in CellXpert C170i CO2-incubator (Eppendorf, Hamburg, Germany). Fresh complete RPMI-1640 medium with rhGM-CSF and rhIL-4 was added to the culture on day 3. On day 5, fresh complete RPMI-1640 containing 100 U/mL rhTNF-α (Sigma-Aldrich, St. Louis, MO, USA) as well as 800 U/mL rhGM-CSF and 500 U/mL rhIL-4 was added and the culture was incubated for another 4 days until full maturation.
Monocytes and moDCs were seeded into the wells of 48- and 24-well plates in the complete RPMI-1640 medium supplemented with 10% human AB serum (HABS, Capricorn Scientific) without antibiotics 24 h prior to the experiment, and kept in a humidified CO2-incubator (5% CO2, 37 °C). After 24 h, the medium in the wells of the 48-well plate was replaced by fresh complete RPMI-1640 medium with 10% HABS, supplemented with 2 µM of Psd1 for the sample wells or fresh medium alone for the control wells. Medium in the wells of the 24-well plate was replaced by fresh complete RPMI-1640 medium with 10% human serum without antibiotics. Then, Millicell inserts with Caco-2 monolayers with TEER > 400 Ωcm^2 were placed into the wells of the 24-well plate, containing monocytes or moDCs. Wells with Millicell inserts with Caco-2 monolayers without immune cells were used as control wells. Medium in apical chambers of Millicell inserts was replaced by fresh complete RPMI-1640 with 10% human serum medium containing Psd1 at the final concentration of 2 µM or Candida albicans at the concentration of 5 × 10^4 cells/mL or yeast cells together with the pea defensin at the same concentration. Fresh complete RPMI-1640 medium only with 10% human serum and without antibiotics was used in control wells. Plates were kept in CO2-incubator (5% CO2, 37 °C) for another 24 h. Culture supernatants from the wells of the 48-well plate and basolateral chambers of the 24-well plate were collected and stored at −70 °C degrees less than one month prior to the analytes assessment.
The following 48 analytes were measured at a protein level by multiplex xMAP technology using the MILLIPLEX Human Cytokine/Chemokine/Growth Factor Panel A kit (HCYTA-60K-PX48, Merck, Darmstadt, Germany): sCD40L, EGF, Eotaxin-1/CCL11, FGF-2/FGF-basic, Flt-3 ligand, Fractalkine/CX3CL1, G-CSF, GM-CSF, GROα/CXCL1, IFNα2, IFNγ, IL-1α, IL-1β, IL-1RA, IL-2, IL-3, IL-4, IL-5, IL-6, IL-7, IL-8/CXCL8, IL-9, IL-10, IL-12(p40), IL-12(p70), IL-13, IL-15, IL-17A/CTLA8, IL-17E/IL-25, IL-17F, IL-18, IL-22, IL-27, IP-10/CXCL10, MCP-1/CCL2, MCP-3/CCL7, M-CSF, MDC/CCL22, MIG/CXCL9, MIP-1α/CCL3, MIP-1β/CCL4, PDGF-AA, PDGF-AB/BB, RANTES/CCL5, TGFα, TNFα, TNFβ, and VEGF-A. Multiplex-based assay read-out was performed using the MAGPIX system (Merck) with the xPONENT 4.2 software (Merck) in accordance with the manufacturer’s instruction with overnight incubation of the samples with primary antibodies. A final analysis was carried out with the MILLIPLEX Analyst v5.1 software (Merck). Measurements were performed twice for each sample. Release of the analytes in control and experimental samples was compared with an unpaired two-sample t-test using GraphPad Prism v.8.0.1 (GraphPad Software, Inc., San Diego, CA, USA). The p values ≤ 0.05 were considered significant.

For “Psd1: pea defensin from Pisum sativum (UNIPROT P81929), recombinant peptide overexpressed in Escherichia coli (KTCEHLADTYRGVCFTNASCDDHCKNKAHLISGTCHNWKCFCTQNC; UniProt P81929 1-46, looked up)”, the EGF level (Mono+Psd1, 2 µM, supernatant) was 8.15 pg/mL, the Eotaxin level (Mono+Psd1, 2 µM, supernatant) was <3.52↓ pg/ml and the FGF-2 level (Mono+Psd1, 2 µM, supernatant) was 41.38 pg/mL. The FLT-3L level (Mono+Psd1, 2 µM, supernatant) was 0.65 pg/mL, the Fractalkine level (Mono+Psd1, 2 µM, supernatant) was <17.82↓ pg/ml and the G-CSF level (Mono+Psd1, 2 µM, supernatant) was 52.17 pg/mL. For the same substance, the GM-CSF level (Mono+Psd1, 2 µM, supernatant) was 12.61 pg/mL, the GROa level (Mono+Psd1, 2 µM, supernatant) was 1254 pg/mL and the IFNa2 level (Mono+Psd1, 2 µM, supernatant) was 12.78 pg/mL. For the same substance, the IFNg level (Mono+Psd1, 2 µM, supernatant) was <2.23↓ pg/ml, the IL-1RA level (Mono+Psd1, 2 µM, supernatant) was 4.01 pg/mL and the IL-1a level (Mono+Psd1, 2 µM, supernatant) was 14.17 pg/mL. For the same substance, the IL-1b level (Mono+Psd1, 2 µM, supernatant) was <2.26↓ pg/ml, the IL-2 level (Mono+Psd1, 2 µM, supernatant) was 1.12 pg/mL and the IL-3 level (Mono+Psd1, 2 µM, supernatant) was <0.60↓ pg/ml. For the same substance, the IL-4 level (Mono+Psd1, 2 µM, supernatant) was <1.14↓ pg/ml, the IL-5 level (Mono+Psd1, 2 µM, supernatant) was <0.30↓ pg/ml and the IL-6 level (Mono+Psd1, 2 µM, supernatant) was 478.09 pg/mL. For the same substance, the IL-7 level (Mono+Psd1, 2 µM, supernatant) was <0.38↓ pg/ml, the IL-8 level (Mono+Psd1, 2 µM, supernatant) was 6178 pg/mL and the IL-9 level (Mono+Psd1, 2 µM, supernatant) was 3.19 pg/mL. The IL-10 level (Mono+Psd1, 2 µM, supernatant) was 22.94 pg/mL, the “IL-12 (p40) level” value (Mono+Psd1, 2 µM, supernatant) was 19.24 pg/mL and the “IL-12 (p70) level” value (Mono+Psd1, 2 µM, supernatant) was <1.68↓ pg/ml. The IL-13 level (Mono+Psd1, 2 µM, supernatant) was 11.06 pg/mL, the IL-15 level (Mono+Psd1, 2 µM, supernatant) was 1.44 pg/mL and the IL-17A level (Mono+Psd1, 2 µM, supernatant) was 3.18 pg/mL. The IL-17E/IL-25 level (Mono+Psd1, 2 µM, supernatant) was <18.85↓ pg/ml, the IL-17F level (Mono+Psd1, 2 µM, supernatant) was <19.03↓ pg/ml and the IL-18 level (Mono+Psd1, 2 µM, supernatant) was 0.8 pg/mL. For the same substance, the IL-22 level (Mono+Psd1, 2 µM, supernatant) was 10.35 pg/mL, the IL-27 level (Mono+Psd1, 2 µM, supernatant) was 59.83 pg/mL and the IP-10 level (Mono+Psd1, 2 µM, supernatant) was 165.32 pg/mL. For the same substance, the M-GSF level (Mono+Psd1, 2 µM, supernatant) was 29.48 pg/mL, the MCP-1 level (Mono+Psd1, 2 µM, supernatant) was 6617 pg/mL and the MCP-3 level (Mono+Psd1, 2 µM, supernatant) was 371.63 pg/mL. It also gave an MDC level (Mono+Psd1, 2 µM, supernatant) of 864.86 pg/mL, an MIG level (Mono+Psd1, 2 µM, supernatant) of 1166 pg/mL and an MIP-1a level (Mono+Psd1, 2 µM, supernatant) of 118.6 pg/mL. The MIP-1b level (Mono+Psd1, 2 µM, supernatant) was 254.87 pg/mL, the PDGF-AA level (Mono+Psd1, 2 µM, supernatant) was 26.77 pg/mL and the PDGF-AB/BB level (Mono+Psd1, 2 µM, supernatant) was 543.88 pg/mL. For the same substance, the RANTES level (Mono+Psd1, 2 µM, supernatant) was 59.35 pg/mL, the TGF-a level (Mono+Psd1, 2 µM, supernatant) was 2.23 pg/mL and the TNFa level (Mono+Psd1, 2 µM, supernatant) was 90.69 pg/mL. The TNFb level (Mono+Psd1, 2 µM, supernatant) was 2.7 pg/mL, the VEGFa level (Mono+Psd1, 2 µM, supernatant) was 4.16 pg/mL and the sCD40L level (Mono+Psd1, 2 µM, supernatant) was 98.67 pg/mL. For the same substance, the “increase in IL-12, IL-15, IL-27 and MCP-1” value (monocytes, 2 μM) was “failed to reach statistical significance” and the “production of TNFα, IL-6, IL-8, IP-10, MCP-3, and G-CSF” value (monocytes, 2 μM) was “increased”.
